For 15 compounds, IC50 and Ki results are on record in patent publication US20100087432A1, “PYRROLE DERIVATIVES HAVING CRTH2 RECEPTOR ANTAGONIST ACTIVITY” (priority 2004, published 2010).

The target in assay [1] is T1, human CRTh2 (Homo sapiens, UniProt Q9Y5Y4).
T1 sequence (Q9Y5Y4 1-395): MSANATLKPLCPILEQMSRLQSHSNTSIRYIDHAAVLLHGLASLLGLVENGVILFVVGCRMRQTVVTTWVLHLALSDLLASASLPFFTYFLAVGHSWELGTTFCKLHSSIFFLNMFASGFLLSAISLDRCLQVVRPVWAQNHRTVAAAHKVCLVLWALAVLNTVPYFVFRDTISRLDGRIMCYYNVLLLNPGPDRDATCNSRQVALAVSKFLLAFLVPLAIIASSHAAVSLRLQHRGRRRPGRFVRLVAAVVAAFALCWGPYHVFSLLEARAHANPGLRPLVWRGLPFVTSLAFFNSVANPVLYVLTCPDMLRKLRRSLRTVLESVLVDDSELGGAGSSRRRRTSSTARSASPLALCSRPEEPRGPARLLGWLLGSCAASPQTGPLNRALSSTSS
The assay is described as follows: CRTH2 cAMP functional assay in CHO.K1-CRTh2 cells. Type of assay: cell-based. The conditions noted are these: inhibition of PGD2-mediated attenuation of forskolin-induced cAMP accumulation in CHO.K1-CRTh2 cells. On the procedure: (§1) where S is the concentration of radioligand and Kd is the dissociation constant. CRTH2 cAMP Functional Assay Protocol
This assay is conducted in CHO.K1-CRTh2 cells. cAMP is generated in the cell by stimulating cells with 5 μM forskolin, an adenylate cyclase activator. PGD2 is added to activate the CRTh2 receptor which results in the attenuation of the forskolin-induced cAMP accumulation. Potential CRTh2 antagonists are tested for their ability to inhibit the PGD2− mediated attenuation of the forskolin-induced cAMP accumulation in CHO.K1-CRTh2 cells.
For each concentration value on the dose-response curve, test compounds are prepared in assay stimulation buffer (HBSS, 5 mM HEPES, 10 μM IBMX ±0.1% human serum albumin) containing DMSO (3% vol/vol) and 5 μL/well is added to an assay plate (384 well white optiplate).
CHO.K1-CRTh2 cultured in tissue culture flasks are washed with PBS and harvested with dissociation buffer. Cells are washed with PBS and re-suspended in stimulation buffer to a concentration of 0.4×10^6/mL and added to the assay plate (10 μL/well).
The assay plate is incubated at room temperature on a shaker for 15 minutes.
A mix of agonist (10 nM Prostaglandin D2) and 5 μM forskolin is prepared in assay stimulation buffer and added to the assay plate (5 μL/well).
In addition, a cAMP standard is serially diluted in assay stimulation buffer and added to separate empty wells on the assay plate (20 μL/well). The cAMP standard allows for the quantification of cAMP generated in CHO.K1-CRTH2 cells.
The assay plate is incubated at room temperature on a shaker for 60 minutes.
Cell lysis buffer (Lysis buffer: Milli-Q H2O, 5 mM HEPES, 0.3% Tween-20, 0.1% human serum albumin) is added to a bead mix (containing Alphascreen™ anti-cAMP acceptor beads 0.06 units/μL, Alphascreen™ streptavidin-coated donor beads 0.06 units/μL, biotinylated cAMP 0.06 units/μL, 10 μM IBMX) is prepared under darkened conditions 60 minutes prior to addition to the assay plate. The resulting lysis mix is added to all wells of the assay plate (40 μL/well).
The assay plate is sealed with Topseal-S™ and incubated in the dark at room temperature on a shaker for 45 minutes. The plate is then counted using a Packard Fusion™ instrument.
The resulting counts per minute are converted to nM cAMP by using the prepared cAMP standard curve. IC50 values (concentration of CRTh2 antagonist required to inhibit 50% of the PGD2-mediated attenuation of forskolin-induced cAMP accumulation in CHO.K1-CRTh2 cells) are then determined using Prism™ software.
A general note: Changes in cAMP serve as a functional read-out for many G protein-coupled receptors.

Assay [2] concerns the target T1, human CRTh2. The assay is described as follows: Filtration binding assay ([3H]-PGD2 competition on CHO.K1-CRTh2 membranes). As to conditions: [3H]-PGD2 2.5 nM, Cheng-Prussoff. On the procedure:
The binding of CRTh2 antagonists is determined using membranes prepared from human CRTh2-expressing Chinese Hamster Ovary cells (CHO.K1-CRTh2). To produce cell membranes CHO.K1-CRTh2 cells cultured in roller bottles are harvested using cell dissociation buffer (Invitrogen). The cells are pelleted by centrifugation (167 g, 5 min). The cell pellet is incubated in hypotonic buffer (15 mM Tris-OH, 2 mM MgCl2, 0.3 mM EDTA, 1 mM EGTA, 1×Complete™ tablet) at 4° C. for 30 minutes. At 4° C. cells are homogenized using a Polytron® (IKA Ultra Turrax T25) for 5 bursts of 1 second. The homogenate is centrifuged (Beckman Optima TM TL Ultracentrifuge, 48000 g, 30 minutes at 4° C.). The supernatant is discarded and the membrane pellet re-suspended in homogenisation buffer (75 mM Tris-OH, 12.5 mM MgCl2, 0.3 mM EDTA, 1 mM EGTA, 250 mM Sucrose, 1×Complete™ tablet. Membrane preparations are aliquoted and stored at […]. The protein content is estimated using Bradford Protein Assay Dye (Bio Rad).
The binding of [^3H]-PGD2 (157 Ci/mmol) to CHO.K1-CRTh2 membranes is determined in the absence (total binding) and presence (non-specific binding) of unlabelled PGD2 (1 μM). Subtraction of the cpm (counts per minute) of [^3H]-PGD2 binding in presence of excess unlabelled PGD2 from that observed in the absence of excess unlabelled PGD2 is defined as specific binding. Active CRTh2 antagonists are able to compete with [^3H]-PGD2 for binding to the CRTh2 receptor and are identified in a decrease in the number of cpm bound.
The assay is performed in Greiner U-bottomed 96 well-plates, in a final volume of 100 μL per well. CHO.K1-CRTh2 membranes were diluted in assay buffer (10 mM HEPES-KOH (pH 7.4), 1 mM EDTA and 10 mM MnCl2) and 10 μg are added to each well [^3H]-PGD2 is diluted in assay buffer and added to each well at a final concentration of 2.5 nM. To determine non-specific binding, [^3H]-PGD2 binding to the CRTh2 receptor is competed with using unlabelled PGD2 at a final well concentration of 1 μM. The experiment is done in triplicate, with reagents added to the wells as follows: • 25 μL assay buffer for total binding or • 25 μL PGD2 to determine non-specific binding • 25 μL [^3H]PGD2 • […] • 25 μL test compound in DMSO/assay buffer
The plates are incubated at room temperature on a shaker for 1 hour, and then harvested (Tomtec Harvester 9600) onto GF/C filter plates using wash buffer (10 mM HEPES-KOH, pH 7.4). The plate is dried for 2 hours, prior to addition of Micro-Scint 20™ (50 μL) and sealing with TopSeal-S™. Plates are then counted using a Packard Top Count instrument, Plates are then read on the Packard Topcount with the 3H Scintillation program (1 min./well).
Ki (dissocation constant for the inhibition) values for the CRTh2 antagonists are reported. Ki values are determined using Sigma Plot™ software, using the Cheng-Prussoff equation.
as §1

For orientation: IC50 means the concentration that gives 50% inhibition. A lower IC50 goes with greater potency in that assay. What is called Ki is a measure of affinity in units of concentration, obtained from inhibition or displacement. Low readings indicate a stronger hold on the target, high ones a looser hold on the target.

On human CRTh2 [1], `N#Cc1cn(CC(=O)O)cc1-c1cc(C(F)(F)F)cc(C(F)(F)F)c1` [Example 1, [3-(3,5-Bis-Trifluoromethyl-Phenyl)-4-Cyano-Pyrrol-1-yl]-Acetic Acid] showed an IC50 of 28 nM. On human CRTh2 [2], this compound displayed a Ki of 10 nM.
In turn, `N#Cc1cn(CC(=O)O)cc1-c1cc(Cl)cc(Cl)c1` [Example 2, [3-Cyano-4-(3,5-Dichloro-Phenyl)-Pyrrol-1-yl]-Acetic Acid] returned an IC50 against human CRTh2 [1] of 57 nM. This compound also yielded an inhibitory constant (Ki) on human CRTh2 [2] of 34 nM.
The corresponding values for `N#Cc1cn(CC(=O)O)cc1-c1cccc2c1OC(F)(F)O2` [Example 3] are 846 nM and 244 nM.
On human CRTh2 [1], `N#Cc1cn(CC(=O)O)cc1-c1cccc(Cl)c1` [Example 8, [3-(3-Chloro-phenyl)-4-cyano-pyrrol-1-yl]-acetic acid] returned an IC50 of 255 nM. At human CRTh2 [2], this compound returned an inhibitory constant (Ki) of 163 nM.
Take `N#Cc1cn(CC(=O)O)cc1-c1cccc(C(F)(F)F)c1` [Example 12, [3-Cyano-4-(3-trifluoromethyl-phenyl)-pyrrol-1-yl]-acetic acid]: the 50% inhibitory concentration (IC50) against human CRTh2 [1] is 69 nM. This compound also showed a Ki on human CRTh2 [2] of 172 nM.
The corresponding values for `N#Cc1cn(CC(=O)O)cc1-c1cc(Cl)ccc1Cl` [Example 15, [3-Cyano-4-(2,5-dichloro-phenyl)-pyrrol-1-yl]-acetic acid] are 282 nM and 144 nM.
Regarding `N#Cc1cn(CC(=O)O)cc1-c1cc(C(F)(F)F)ccc1Cl` [Example 17, [3-(2-Chloro-5-trifluoromethyl-phenyl)-4-cyano-pyrrol-1-yl]-acetic acid], the IC50 on human CRTh2 [1] is 161 nM. The compound also had an inhibition constant Ki at human CRTh2 [2] of 89 nM.
The compound `N#Cc1cn(CC(=O)O)cc1-c1cc(C(F)(F)F)ccc1C(F)(F)F` [Example 21, [3-(2,5-Bis-trifluoromethyl-phenyl)-4-cyano-pyrrol-1-yl]-acetic acid] came in with an IC50 on human CRTh2 [1] of 147 nM. For the same compound, the affinity at human CRTh2 [2] corresponds to a Ki of 96 nM.
As to `N#Cc1cn(CC(=O)O)cc1-c1cc(C(F)(F)F)cc(Cl)c1F` [Example 25, [3-(3-Chloro-2-fluoro-5-trifluoromethyl-phenyl) -4-cyano-pyrrol-1-yl]-acetic acid], the midpoint of inhibition against human CRTh2 [1], the IC50, lay at 25 nM. At human CRTh2 [2], this compound displayed an inhibition constant (Ki) of 40 nM.
In the case of `N#Cc1cn(CC(=O)O)cc1-c1cc(C(F)(F)F)cc(S(=O)(=O)N2CCCCC2)c1` [Example 40, {3-Cyano-4-[3-(Piperidine-1-Sulfonyl)-5-Trifluoromethyl-Phenyl]Pyrrol-1-yl}-Acetic Acid], on human CRTh2 [1], inhibition was half-maximal at 12 nM (IC50). Further, the affinity at human CRTh2 [2], expressed as Ki, was 2 nM.
On human CRTh2 [1], `N#Cc1cn(CC(=O)O)cc1-c1cc(C(F)(F)F)cc(S(=O)(=O)N2CCCC2)c1` [Example 42, {3-cyano-4-[3-(pyrrolidine-1-sulfonyl)-5-trifluoromethyl-phenyl]-pyrrol-1-yl}-acetic acid] showed a 50% inhibitory concentration (IC50) of 17 nM. Besides, the affinity at human CRTh2 [2] corresponds to a Ki of 6 nM.
With `CCCCNS(=O)(=O)c1cc(-c2cn(CC(=O)O)cc2C#N)cc(C(F)(F)F)c1` [Example 45, [3-(3-butylsulfamoyl-5-trifluoromethyl-phenyl)-4-cyano-pyrrol-1-yl]-acetic acid], inhibition against human CRTh2 [1] was half-maximal at 16 nM (IC50). The affinity on human CRTh2 [2] corresponds to a Ki of 6 nM.
`N#Cc1cn(CC(=O)O)cc1-c1cc(C(F)(F)F)cc(S(=O)(=O)NC2CCC2)c1` [Example 50, [3-cyano-4-(3-cyclobutylsulfamoyl-5-trifluoromethyl-phenyl)-pyrrol-1-yl]-acetic acid] gave an IC50 against human CRTh2 [1] of 9 nM. Further, the affinity on human CRTh2 [2] corresponds to a Ki of 4 nM.
With `N#Cc1cn(CC(=O)O)cc1-c1cc(Cl)cc(S(=O)(=O)N2CCCCC2)c1` [Example 53, {3-[3-Chloro-5-(Piperidine-1-Sulfonyl)-Phenyl]-4-Cyano-Pyrrol-1-yl}-Acetic Acid], the IC50 against human CRTh2 [1] stood at 46 nM. In addition, at human CRTh2 [2], the inhibitory constant (Ki) was determined as 2 nM.
On human CRTh2 [1], `CN(C)S(=O)(=O)c1cc(-c2cn(CC(=O)O)cc2C#N)cc(C(F)(F)F)c1` [Example 64, [3-Cyano-4-(3-Dimethylsulfamoyl-5-Trifluoromethyl-Phenyl)-Pyrrol-1-yl]-Acetic Acid] registered an IC50 of 14 nM. The Ki on human CRTh2 [2] came to 42 nM.
